Assay results published in ChEMBL document CHEMBL4321812, “Structure-based rational design of staurosporine-based fluorescent probe with broad-ranging kinase affinity for kinase panel application” (Bioorg Med Chem Lett, 2019).

Experiments:
[1] = molecular target: Leukocyte tyrosine kinase receptor (Homo sapiens, UniProt P29376); assay: Binding affinity to recombinant full-length N-terminal His-FLAG-GST-tagged LTK (unknown origin) (498 to 796 residues) expressed in baculovirus infected Sf9 insect cells incubated for 1 hr by TR-FRET assay
[2] = molecular target: Serine/threonine-protein kinase ULK2 (Homo sapiens, UniProt Q8IYT8); assay: Binding affinity to recombinant N-terminal His-FLAG-GST-tagged ULK2 (unknown origin) (1 to 478 residues) expressed in baculovirus infected Sf9 insect cells incubated for 1 hr by TR-FRET assay
Rhodopsin kinase GRK1 = Rhodopsin kinase GRK1 (Homo sapiens, UniProt Q15835); assay: Binding affinity to recombinant full-length N-terminal His-FLAG-GST-tagged GRK1 (unknown origin) expressed in baculovirus infected Sf9 insect cells incubated for 1 hr by TR-FRET assay
[3] = molecular target: Dual specificity mitogen-activated protein kinase kinase 1 (Homo sapiens, UniProt Q02750); assay: Binding affinity to recombinant full-length N-terminal His-FLAG-tagged MAP2K1 (unknown origin) expressed in baculovirus infected Sf9 insect cells incubated for 1 hr by TR-FRET assay
[4] = molecular target: Rho-associated protein kinase 1 (Homo sapiens, UniProt Q13464); assay: Binding affinity to recombinant full-length N-terminal His-FLAG-GST-tagged ROCK1 (unknown origin) (1 to 477 residues) expressed in baculovirus infected Sf9 insect cells incubated for 1 hr by TR-FRET assay
[5] = molecular target: Serine/threonine-protein kinase 32A (Homo sapiens, UniProt Q8WU08); assay: Binding affinity to recombinant full-length N-terminal His-FLAG-tagged STK32A (unknown origin) expressed in baculovirus infected Sf9 insect cells incubated for 1 hr by TR-FRET assay
[6] = molecular target: TRAF2 and NCK-interacting protein kinase (Homo sapiens, UniProt Q9UKE5); assay: Binding affinity to recombinant full-length N-terminal His-FLAG-GST-tagged TNIK (unknown origin) (1 to 314 residues) expressed in baculovirus infected Sf9 insect cells incubated for 1 hr by TR-FRET assay
[7] = molecular target: Tyrosine-protein kinase Lyn (Homo sapiens, UniProt P07948); assay: Binding affinity to recombinant full-length N-terminal His-FLAG-GST-tagged LYN (unknown origin) expressed in baculovirus infected Sf9 insect cells incubated for 1 hr by TR-FRET assay
[8] = molecular target: Serine/threonine-protein kinase 26 (Homo sapiens, UniProt Q9P289); assay: Binding affinity to recombinant full-length N-terminal His-FLAG-tagged MST4 (unknown origin) expressed in baculovirus infected Sf9 insect cells incubated for 1 hr by TR-FRET assay
[9] = molecular target: cAMP-dependent protein kinase catalytic subunit gamma (Homo sapiens, UniProt P22612); assay: Binding affinity to recombinant full-length N-terminal His-FLAG-GST-tagged PRKACG (unknown origin) expressed in baculovirus infected Sf9 insect cells incubated for 1 hr by TR-FRET assay
[10] = molecular target: Tyrosine-protein kinase Fyn (Homo sapiens, UniProt P06241); assay: Binding affinity to recombinant full-length N-terminal His-FLAG-tagged FYN (unknown origin) expressed in baculovirus infected Sf9 insect cells incubated for 1 hr by TR-FRET assay
[11] = molecular target: Serine/threonine-protein kinase LATS2 (Homo sapiens, UniProt Q9NRM7); assay: Binding affinity to recombinant full-length N-terminal His-FLAG-GST-tagged LATS2 (unknown origin) (553 to 1088 residues) expressed in baculovirus infected Sf9 insect cells incubated for 1 hr by TR-FRET assay
[12] = molecular target: Non-receptor tyrosine-protein kinase TYK2 (Homo sapiens, UniProt P29597); assay: Binding affinity to recombinant N-terminal His-FLAG-GST-tagged TYK2 (unknown origin) (871 to 1187 residues) expressed in baculovirus infected Sf9 insect cells incubated for 1 hr by TR-FRET assay
[13] = molecular target: Protein kinase C delta type (Homo sapiens, UniProt Q05655); assay: Binding affinity to recombinant human full length N-terminal GST-tagged PRKCD expressed in baculovirus expression system using PKC peptide as substrate incubated for 1 hr by TR-FRET assay
[14] = molecular target: Mitogen-activated protein kinase kinase kinase 9 (Homo sapiens, UniProt P80192); assay: Binding affinity to recombinant N-terminal His-FLAG-GST-tagged MAP3K9 (unknown origin) (110 to 422 residues) expressed in baculovirus infected Sf9 insect cells incubated for 1 hr by TR-FRET assay
[15] = molecular target: Tyrosine-protein kinase Lck (Homo sapiens, UniProt P06239); assay: Binding affinity to recombinant human full length N-terminal GST-tagged LCK expressed in baculovirus expression system using srctide as substrate incubated for 1 hr by TR-FRET assay
[16] = molecular target: Serine/threonine-protein kinase D2 (Homo sapiens, UniProt Q9BZL6); assay: Binding affinity to recombinant full-length N-terminal His-FLAG-tagged PRKD2 (unknown origin) expressed in baculovirus infected Sf9 insect cells incubated for 1 hr by TR-FRET assay
[17] = molecular target: Calcium/calmodulin-dependent protein kinase type II subunit beta (Homo sapiens, UniProt Q13554); assay: Binding affinity to recombinant human full length N-terminal GST-tagged CAMK2B expressed in baculovirus expression system using GS peptide as substrate incubated for 1 hr in presence of calmodulin by TR-FRET assay
[18] = molecular target: Dual specificity tyrosine-phosphorylation-regulated kinase 1A (Homo sapiens, UniProt Q13627); assay: Binding affinity to recombinant full-length N-terminal His-FLAG-GST-tagged DYRK1A (unknown origin) expressed in baculovirus infected Sf9 insect cells incubated for 1 hr by TR-FRET assay
[19] = molecular target: Serine/threonine-protein kinase DCLK3 (Homo sapiens, UniProt Q9C098); assay: Binding affinity to recombinant full-length N-terminal His-FLAG-tagged DCLK3 (unknown origin) expressed in baculovirus infected Sf9 insect cells incubated for 1 hr by TR-FRET assay
[20] = molecular target: Dual specificity protein kinase CLK2 (Homo sapiens, UniProt P49760); assay: Binding affinity to recombinant full-length N-terminal His-FLAG-GST-tagged CLK2 (unknown origin) expressed in baculovirus infected Sf9 insect cells incubated for 1 hr by TR-FRET assay
[21] = molecular target: Serine/threonine-protein kinase N2 (Homo sapiens, UniProt Q16513); assay: Binding affinity to recombinant full-length N-terminal His-FLAG-GST-tagged PKN2 (unknown origin) expressed in baculovirus infected Sf9 insect cells incubated for 1 hr by TR-FRET assay
[22] = molecular target: Death-associated protein kinase 3 (Homo sapiens, UniProt O43293); assay: Binding affinity to recombinant full-length N-terminal His-FLAG-GST-tagged DAPK3 (unknown origin) expressed in baculovirus infected Sf9 insect cells incubated for 1 hr by TR-FRET assay
[23] = molecular target: Vascular endothelial growth factor receptor 3 (Homo sapiens, UniProt P35916); assay: Binding affinity to recombinant N-terminal His-FLAG-GST-tagged FLT4 (unknown origin) (798 to 1298 residues) expressed in baculovirus infected Sf9 insect cells incubated for 1 hr by TR-FRET assay
Vascular endothelial growth factor receptor 3, sequence (P35916 whole entry, the tested form may be a part): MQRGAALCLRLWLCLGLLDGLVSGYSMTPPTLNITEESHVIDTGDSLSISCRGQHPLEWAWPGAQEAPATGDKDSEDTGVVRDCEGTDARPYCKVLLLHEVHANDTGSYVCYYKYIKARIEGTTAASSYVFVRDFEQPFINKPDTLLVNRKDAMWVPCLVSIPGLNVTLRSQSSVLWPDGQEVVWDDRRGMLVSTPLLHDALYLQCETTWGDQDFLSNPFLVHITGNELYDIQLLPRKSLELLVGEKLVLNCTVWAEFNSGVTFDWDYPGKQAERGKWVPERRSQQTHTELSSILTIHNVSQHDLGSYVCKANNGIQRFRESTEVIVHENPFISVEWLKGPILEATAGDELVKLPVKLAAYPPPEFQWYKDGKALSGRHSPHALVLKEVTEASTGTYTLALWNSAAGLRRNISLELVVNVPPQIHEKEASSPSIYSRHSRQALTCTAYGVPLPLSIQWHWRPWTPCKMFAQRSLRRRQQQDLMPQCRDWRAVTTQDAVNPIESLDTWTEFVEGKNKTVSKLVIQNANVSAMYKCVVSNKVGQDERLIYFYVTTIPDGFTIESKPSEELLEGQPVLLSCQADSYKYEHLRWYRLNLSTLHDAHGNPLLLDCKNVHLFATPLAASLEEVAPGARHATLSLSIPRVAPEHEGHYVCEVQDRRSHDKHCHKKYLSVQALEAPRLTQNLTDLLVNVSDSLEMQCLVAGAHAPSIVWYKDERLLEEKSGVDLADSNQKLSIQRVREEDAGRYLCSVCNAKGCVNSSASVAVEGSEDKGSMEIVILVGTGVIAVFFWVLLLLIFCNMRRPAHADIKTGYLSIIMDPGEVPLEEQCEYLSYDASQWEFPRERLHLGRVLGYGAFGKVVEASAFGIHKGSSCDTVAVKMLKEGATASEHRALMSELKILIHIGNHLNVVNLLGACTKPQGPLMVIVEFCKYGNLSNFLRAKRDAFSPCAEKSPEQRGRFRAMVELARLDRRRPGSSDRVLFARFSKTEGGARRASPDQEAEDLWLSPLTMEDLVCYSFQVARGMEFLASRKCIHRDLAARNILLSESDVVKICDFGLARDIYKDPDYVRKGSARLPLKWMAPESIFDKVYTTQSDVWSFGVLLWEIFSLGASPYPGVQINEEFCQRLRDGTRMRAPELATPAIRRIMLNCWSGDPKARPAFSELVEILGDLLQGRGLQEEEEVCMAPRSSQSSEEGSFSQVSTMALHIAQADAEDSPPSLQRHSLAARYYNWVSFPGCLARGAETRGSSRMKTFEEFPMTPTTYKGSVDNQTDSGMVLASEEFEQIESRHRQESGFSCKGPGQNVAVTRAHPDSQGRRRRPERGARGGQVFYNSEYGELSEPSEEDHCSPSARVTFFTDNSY

Tyrosine-protein kinase Lyn, sequence (P07948 whole entry): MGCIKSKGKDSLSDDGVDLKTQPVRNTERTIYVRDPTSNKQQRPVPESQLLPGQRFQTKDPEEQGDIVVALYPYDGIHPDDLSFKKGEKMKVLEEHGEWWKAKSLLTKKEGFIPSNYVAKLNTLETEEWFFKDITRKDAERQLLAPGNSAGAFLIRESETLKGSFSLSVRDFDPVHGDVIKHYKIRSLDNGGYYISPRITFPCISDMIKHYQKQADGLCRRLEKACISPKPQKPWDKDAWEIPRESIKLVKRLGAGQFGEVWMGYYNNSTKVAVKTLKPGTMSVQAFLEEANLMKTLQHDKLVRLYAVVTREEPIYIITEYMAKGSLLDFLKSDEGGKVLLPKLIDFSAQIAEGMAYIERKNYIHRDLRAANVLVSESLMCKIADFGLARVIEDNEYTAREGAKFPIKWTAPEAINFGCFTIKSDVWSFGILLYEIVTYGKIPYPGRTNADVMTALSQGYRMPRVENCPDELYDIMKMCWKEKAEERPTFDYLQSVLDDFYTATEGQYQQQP
Protein kinase C delta type, sequence (Q05655 whole entry, the tested form may be a part): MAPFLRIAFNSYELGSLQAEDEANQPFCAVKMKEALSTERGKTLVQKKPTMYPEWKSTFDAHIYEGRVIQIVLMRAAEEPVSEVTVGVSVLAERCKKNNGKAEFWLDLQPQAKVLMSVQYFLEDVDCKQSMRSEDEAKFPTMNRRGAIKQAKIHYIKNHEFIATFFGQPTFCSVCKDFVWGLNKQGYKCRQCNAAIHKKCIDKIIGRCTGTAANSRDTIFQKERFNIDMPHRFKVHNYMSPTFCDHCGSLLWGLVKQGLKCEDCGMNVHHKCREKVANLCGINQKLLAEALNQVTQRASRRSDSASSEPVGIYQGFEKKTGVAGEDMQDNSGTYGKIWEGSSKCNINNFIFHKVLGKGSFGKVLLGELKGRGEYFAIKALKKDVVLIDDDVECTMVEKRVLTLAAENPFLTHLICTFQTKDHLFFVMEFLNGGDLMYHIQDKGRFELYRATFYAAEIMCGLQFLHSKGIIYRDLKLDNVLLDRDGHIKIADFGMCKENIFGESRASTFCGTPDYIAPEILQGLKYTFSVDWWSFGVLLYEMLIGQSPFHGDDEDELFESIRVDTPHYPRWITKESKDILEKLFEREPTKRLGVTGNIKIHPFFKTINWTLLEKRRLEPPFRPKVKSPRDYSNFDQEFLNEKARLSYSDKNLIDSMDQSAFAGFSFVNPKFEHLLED
Non-receptor tyrosine-protein kinase TYK2, sequence (P29597 whole entry, the tested form may be a part): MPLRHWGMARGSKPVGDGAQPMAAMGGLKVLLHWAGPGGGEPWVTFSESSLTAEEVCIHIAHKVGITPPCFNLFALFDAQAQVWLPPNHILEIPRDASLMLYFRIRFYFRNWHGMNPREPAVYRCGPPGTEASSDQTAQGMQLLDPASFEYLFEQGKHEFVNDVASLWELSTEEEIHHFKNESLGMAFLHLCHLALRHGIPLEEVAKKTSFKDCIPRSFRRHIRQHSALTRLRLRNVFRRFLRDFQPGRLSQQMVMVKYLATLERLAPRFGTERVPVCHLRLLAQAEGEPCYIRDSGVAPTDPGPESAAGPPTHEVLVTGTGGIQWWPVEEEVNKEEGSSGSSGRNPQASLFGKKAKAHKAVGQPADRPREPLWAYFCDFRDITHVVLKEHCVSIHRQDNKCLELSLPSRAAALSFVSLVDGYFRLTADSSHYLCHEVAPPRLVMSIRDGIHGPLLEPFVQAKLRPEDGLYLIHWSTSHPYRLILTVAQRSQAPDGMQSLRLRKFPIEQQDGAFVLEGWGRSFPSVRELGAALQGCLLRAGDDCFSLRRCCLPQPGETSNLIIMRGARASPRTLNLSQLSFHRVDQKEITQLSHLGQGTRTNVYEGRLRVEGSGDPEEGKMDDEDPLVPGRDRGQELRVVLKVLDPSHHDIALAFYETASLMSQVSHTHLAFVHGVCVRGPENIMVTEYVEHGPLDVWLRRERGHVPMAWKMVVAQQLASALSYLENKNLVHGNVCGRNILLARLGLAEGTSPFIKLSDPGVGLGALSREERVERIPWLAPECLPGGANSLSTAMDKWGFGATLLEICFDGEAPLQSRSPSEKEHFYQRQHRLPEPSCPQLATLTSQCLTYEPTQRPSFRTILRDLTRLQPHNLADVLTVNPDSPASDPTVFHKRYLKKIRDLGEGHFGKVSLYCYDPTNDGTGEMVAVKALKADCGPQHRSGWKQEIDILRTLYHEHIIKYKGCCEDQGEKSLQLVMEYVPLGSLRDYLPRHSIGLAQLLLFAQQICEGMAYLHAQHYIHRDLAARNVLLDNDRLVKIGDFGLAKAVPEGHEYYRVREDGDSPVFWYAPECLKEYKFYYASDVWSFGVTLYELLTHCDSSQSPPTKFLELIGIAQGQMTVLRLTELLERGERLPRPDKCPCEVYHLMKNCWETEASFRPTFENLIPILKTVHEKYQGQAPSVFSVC
Serine/threonine-protein kinase 32A, sequence (Q8WU08 whole entry, the tested form may be a part): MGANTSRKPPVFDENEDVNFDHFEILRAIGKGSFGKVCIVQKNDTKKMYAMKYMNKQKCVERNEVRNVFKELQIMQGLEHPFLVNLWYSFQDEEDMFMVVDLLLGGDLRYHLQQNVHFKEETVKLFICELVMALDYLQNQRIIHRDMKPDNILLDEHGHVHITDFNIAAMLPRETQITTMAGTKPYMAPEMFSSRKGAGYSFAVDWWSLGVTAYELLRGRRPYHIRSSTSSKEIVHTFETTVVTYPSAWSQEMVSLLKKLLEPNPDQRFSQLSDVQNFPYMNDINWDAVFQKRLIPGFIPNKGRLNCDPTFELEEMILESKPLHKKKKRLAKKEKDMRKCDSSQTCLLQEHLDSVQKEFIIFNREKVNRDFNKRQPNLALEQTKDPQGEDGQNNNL
Leukocyte tyrosine kinase receptor, sequence (P29376 whole entry, the tested form may be a part): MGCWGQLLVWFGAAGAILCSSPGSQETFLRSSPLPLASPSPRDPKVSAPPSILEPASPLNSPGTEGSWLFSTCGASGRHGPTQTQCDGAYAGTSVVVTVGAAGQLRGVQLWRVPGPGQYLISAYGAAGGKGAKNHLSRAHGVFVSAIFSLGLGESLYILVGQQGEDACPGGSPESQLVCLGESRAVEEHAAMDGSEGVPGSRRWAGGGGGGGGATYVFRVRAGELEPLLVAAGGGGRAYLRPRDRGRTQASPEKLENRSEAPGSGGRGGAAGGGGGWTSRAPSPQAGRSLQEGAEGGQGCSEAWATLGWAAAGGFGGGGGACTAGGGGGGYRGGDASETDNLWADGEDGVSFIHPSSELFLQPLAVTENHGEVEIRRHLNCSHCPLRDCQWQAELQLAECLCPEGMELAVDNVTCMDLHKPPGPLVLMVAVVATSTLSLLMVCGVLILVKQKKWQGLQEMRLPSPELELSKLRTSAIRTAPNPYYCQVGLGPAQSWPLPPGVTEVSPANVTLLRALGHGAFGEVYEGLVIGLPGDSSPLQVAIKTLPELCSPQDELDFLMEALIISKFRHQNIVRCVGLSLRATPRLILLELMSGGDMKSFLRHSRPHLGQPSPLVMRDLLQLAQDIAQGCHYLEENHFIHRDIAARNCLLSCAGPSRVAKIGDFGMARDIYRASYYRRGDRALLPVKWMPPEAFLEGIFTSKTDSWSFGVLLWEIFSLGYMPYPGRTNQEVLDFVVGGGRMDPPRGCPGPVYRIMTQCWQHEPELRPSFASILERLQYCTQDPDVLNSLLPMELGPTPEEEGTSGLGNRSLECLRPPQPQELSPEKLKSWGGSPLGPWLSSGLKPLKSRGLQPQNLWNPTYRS

## CO[C@@H]1[C@H](NCCOCCOCCOCCNC(=O)CCC2=[N+]3C(=Cc4c(C)cc(C)n4[B-]3(F)F)C=C2)C[C@H]2O[C@]1(C)n1c3ccccc3c3c4c(c5c6ccccc6n2c5c31)C(=O)NC4
[1]
  Kd: 193 nM
[2]
  Kd: 30 nM
Rhodopsin kinase GRK1
  Kd: 122 nM
[3]
  Kd: 328 nM
[4]
  Kd: 35 nM
[5]
  Kd: 1540 nM
[6]
  Kd: 121 nM
[7]
  Kd: 63 nM
[8]
  Kd: 687 nM
[9]
  Kd: 148 nM
[10]
  Kd: 267 nM
[11]
  Kd: 135 nM
[12]
  Kd: 8 nM
[13]
  Kd: 13 nM
[14]
  Kd: 2 nM
[15]
  Kd: 94 nM
[16]
  Kd: 79 nM
[17]
  Kd: 19 nM
[18]
  Kd: 138 nM
[19]
  Kd: 60 nM
[20]
  Kd: 318 nM
[21]
  Kd: 6 nM
[22]
  Kd: 41 nM
[23]
  Kd: 61 nM

## CO[C@@H]1[C@H](N(C)CCOCCOCCOCCNC(=O)CCC2=[N+]3C(=Cc4c(C)cc(C)n4[B-]3(F)F)C=C2)C[C@H]2O[C@]1(C)n1c3ccccc3c3c4c(c5c6ccccc6n2c5c31)C(=O)NC4
[1]
  Kd: 193 nM
[2]
  Kd: 61 nM
Rhodopsin kinase GRK1
  Kd: 109 nM
[3]
  Kd: 428 nM
[4]
  Kd: 26 nM
[5]
  Kd: 1750 nM
[6]
  Kd: 97 nM
[7]
  Kd: 116 nM
[8]
  Kd: 983 nM
[9]
  Kd: 154 nM
[10]
  Kd: 322 nM
[11]
  Kd: 223 nM
[12]
  Kd: 49 nM
[13]
  Kd: 3 nM
[14]
  Kd: 3 nM
[15]
  Kd: 92 nM
[16]
  Kd: 140 nM
[17]
  Kd: 12 nM
[18]
  Kd: 102 nM
[19]
  Kd: 104 nM
[20]
  Kd: 396 nM
[21]
  Kd: 4 nM
[22]
  Kd: 25 nM
[23]
  Kd: 78 nM
